Inhibition data for ten molecules are collected here from patent US7078537B2, “Phenylalkyl diamine and amide analogs” (SK Corporation, priority 2001, dated 2006).

Structures are written as SMILES.

For one assay, the target named is T1, sigma-1 receptor (Cavia porcellus, UniProt Q60492).
T1 construct: their whole brains (without cerebellum) were rapidly removed and homogenized; from tissue; host or cells: guinea pig (male Hartley) whole brain without cerebellum, membrane homogenate
The assay is described as follows: Sigma-1 binding assay ([3H](+)-pentazocine). The settings on record: inhibition % at 10 nM; guinea pig brain membranes, [3H](+)-pentazocine; Table II; read-out: Sigma 1 Inhib. %. On the procedure: (§1) Sigma-1 and Sigma-2 Binding Assay Methods
(§2) Compounds of the present inventions were tested for selective binding to the sigma-1 receptor and sigma-2 receptor as modified from Chaki et al. Eur. J. Pharmacol. 1994, 251, R1. and Akunne et al., Neuropharmacology, 1997, 36(1), 51.
(§3) Tissue Homogenate Preparation for Sigma-1 Binding Assay and Sigma-2 Binding Assay
(§4) Male Hartley guinea pigs each weighing 300–400 g were used in sigma subtype binding assay. Guinea pigs were killed by decapitation and their whole brains (without cerebellum) were rapidly removed and homogenized in 25 volumes(W/V) of ice-cold 50 mM Tris-HCl buffer(pH 7.4 buffer for sigma-1 binding assay and pH 8.0 buffer for sigma-2 binding assay). The homogenate was centrifuged in 48,000×g for 10 min at 4° C. The supernatant was discarded and the resulting pellets were resuspended in the sane volume of buffer and recentrifuged as described above. The pellets were resuspended and washed twice more in the same manner as described above. The final pellets were resuspended in 10 volumes(W/V) of ice-cold 50 mM Tris-HCl buffer to enable distribution of 2 ml aliquot in microcentrifuge tube, which were used immediately or kept at −80° C. for no more than 1 month before use.
Sigma-1 Binding Assay ([^3H](+)pentazocine)
The sigma-1 selective binding assay was performed using [^3H](+)-pentazocine as the radioligand (2.4 nM final concentration unless otherwise specified) and approximately […] of guinea pig brain membranes in a final volume of […] of 50 mM TRISHCl, pH7.4. Non-specific binding was determined in the presence of […]. For the standard equilibrium assay, the mixtures were incubated for 2 hours at 25°, and rapidly filtered over Whatman GF/C glass fiber filters, followed by three 4.5 ml rinses with ice-cold incubation buffer. The filters were placed in counting vials and 4 ml scintillation solution. The vials were counted in a Beckman scintillation counter.
(§5) IC50 values for sigma-1 or -2 binding assay were calculated using KELL RADLIG v.6.0.5.

The next assay deals with T2, sigma-2 receptor (Cavia porcellus, UniProt H0V073).
T2 construct: their whole brains (without cerebellum) were rapidly removed and homogenized; from tissue; host or cells: guinea pig (male Hartley) whole brain without cerebellum, membrane homogenate
T2 sequence (H0V073 1-176): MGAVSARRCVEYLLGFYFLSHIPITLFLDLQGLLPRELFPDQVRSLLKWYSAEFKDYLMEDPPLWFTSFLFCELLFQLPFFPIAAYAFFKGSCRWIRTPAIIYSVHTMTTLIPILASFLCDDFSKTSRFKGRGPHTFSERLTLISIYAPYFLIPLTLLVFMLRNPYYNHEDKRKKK
As to the kind of experiment: Sigma-2 binding assay ([3H]DTG in the presence of (+)-SKF10047). The settings on record: inhibition % at 10 nM; guinea pig brain membranes, [3H]DTG; Table II; read-out: Sigma 2 Inhib. %. On the procedure: as §1, §2, §3, §4
Sigma-2 Binding Assay([^3H]DTG)
The Sigma-2 selective binding assay was performed using 3.6 nM[^3H]DTG as the radioligand in the presence of 200 nM (+)-SKF10047 to block the Sigma-1 sites, with […] of guinea pig brain membranes in a total volume of 0.5 ml of 50 mM TRIS-HCl, pH8.0. Non-specific binding was determined in the presence of […]. Incubation condition and other manipulations were as described above for sigma-1 binding assay.
as §5

T1 sequence (Q60492 whole entry): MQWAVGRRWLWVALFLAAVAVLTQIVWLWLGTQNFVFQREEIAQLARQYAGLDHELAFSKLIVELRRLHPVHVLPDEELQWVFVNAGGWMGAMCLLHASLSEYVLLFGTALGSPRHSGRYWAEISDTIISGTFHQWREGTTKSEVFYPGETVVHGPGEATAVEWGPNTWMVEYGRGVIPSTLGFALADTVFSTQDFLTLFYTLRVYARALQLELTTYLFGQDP

As for `NC(Cc1ccc(Cl)cc1Cl)CN1CCCCCC1` (centres unmarked), the results for the inhibition at 0.01 µM on sigma-1 receptor and at sigma-2 receptor were 73.2% and 61%, respectively.

Take `CN(C=O)C(CCN1CCC(Cc2ccccc2)CC1)c1ccccc1` (centres unmarked): the values for the inhibition at 0.01 µM on sigma-1 receptor and at sigma-2 receptor were -2% and 26.4%, respectively.

`CN(C)C(CCN1CCC(Cc2ccccc2)CC1)c1ccccc1` (centres unmarked): the figures for the inhibition at 0.01 µM on sigma-1 receptor and at sigma-2 receptor were 20.3% and 57.7%, respectively.

For the molecule `O=S(=O)(NC(CCN1CCC(Cc2ccccc2)CC1)c1ccccc1)c1ccccc1` (centres unmarked), the inhibition at 0.01 µM on sigma-1 receptor turned out to be 35.6%; on sigma-2 receptor it was 11.4%.

For `O=[N+]([O-])c1ccc(S(=O)(=O)NC(CCN2CCC(Cc3ccccc3)CC2)c2ccccc2)c([N+](=O)[O-])c1` (centres unmarked), the inhibition at 0.01 µM came to 5.7% at sigma-1 receptor and 40.6% on sigma-2 receptor.

On to `O=[N+]([O-])c1cccc(S(=O)(=O)NC(CCN2CCC(Cc3ccccc3)CC2)c2ccccc2)c1` (centres unmarked), for which the inhibition at 0.01 µM is 45.7% on sigma-1 receptor and 25.7% on sigma-2 receptor.

With `O=[N+]([O-])c1ccccc1S(=O)(=O)NC(CCN1CCC(Cc2ccccc2)CC1)c1ccccc1` (centres unmarked), the results for the inhibition at 0.01 µM on sigma-1 receptor and at sigma-2 receptor were 31.6% and 3.1%, respectively.

Consider `O=C(NC(CCN1CCC(Cc2ccccc2)CC1)c1ccccc1)c1ccccc1` (centres unmarked), for which the inhibition at 0.01 µM turned out to be 44.3% on sigma-1 receptor and 5.2% on sigma-2 receptor.

As for `NC(CCN1CCC(C(=O)c2ccccc2)CC1)c1ccccc1` (centres unmarked), the results for the inhibition at 0.01 µM on sigma-1 receptor and on sigma-2 receptor were 13.7% and 48.3%, respectively.

As to `NC(CCN1CCC(C(=O)c2ccc(F)cc2)CC1)c1ccccc1` (centres unmarked), the inhibition at 0.01 µM on sigma-1 receptor is -1.9%; at sigma-2 receptor, 57.3%.
